Measured values reported in the METLIN SMRT retention time set (Domingo-Almenara et al. 2019).

Test: gradient 5% acetonitrile 3 min, to 50% in 2 min, to 85% in 15 min, held 3 min, 100 µL/min
Conditions: column: Zorbax Extend-C18 2.1 x 50 mm; eluents: water / acetonitrile, 0.1% formic acid
Summary of the method: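 Retention time was recorded from adduct peaks, which were picked computationally and each inspected manually. Pure standards ran in mixtures of ~100 molecules on HPLC coupled to a quadrupole time-of-flight mass spectrometer, in positive and negative ionization mode, through a Zorbax Extend-C18 column (2.1 × 50 mm, 1.8 μm) at 100 μL/min. Eluents were water and acetonitrile, each with 0.1% formic acid.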

Row | SMILES | RP-LC retention time
1 | CCNC(=O)c1c(-c2cccnc2)noc1C | 583 s
2 | Cc1cc(C(=O)N2CCCCC2)c2c(=O)n(CC(=O)NCCC(C)C)c(=O)n(C)c2n1 | 790 s
3 | O=C(c1cccs1)N1CCN(c2ccc(=O)n(-c3ccc(Cl)cc3)n2)CC1 | 834 s
4 | CCCC(=O)Nc1ccc2c(c1)Sc1ncccc1C(=O)N2CC | 724 s
5 | CCNC(=O)N1CCCN(S(=O)(=O)C(C)C)CC1 | 614 s
6 | CN1C2CCC1CC(OC(=O)[C@H](CO)c1ccccc1)C2 (stereo partly specified) | 667 s
7 | Cc1ccc(C)c2sc(NCc3ccccn3)nc12 | 641 s
8 | CC(=O)c1cccc(NC(=O)Cn2c(-c3ccccc3)nc(C)cc2=O)c1 | 912 s
9 | COc1cccc(CNC(=O)C2(C)CCN(C(=O)Nc3ccc(Br)c(C)c3)CC2)c1 | 934 s
10 | O=C(NCCc1ccc(F)cc1)C(=O)Nc1ccc(Cl)cn1 | 918 s
11 | COc1cccc(CN2CCc3nc(N4CCN(c5ccccc5F)CC4)ncc3C2)c1 | 785 s
12 | COC(=O)c1cn(CC(=O)NC(C)c2ccc3c(c2)OCCCO3)c2ccccc12 (stereo unspecified) | 835 s
13 | Cc1cc(C(=O)N2CCCCC2)c2c(=O)n(CC(=O)N(C)c3ccccc3)c(=O)n(C)c2n1 | 812 s
14 | CCOc1cc(CNC(=O)c2ccc3c(c2)N(C)C(=O)c2ccccc2O3)cc(OCC)c1OCC | 973 s
15 | Cc1ccc(-c2nc3cnccn3c2NCCC(=O)NC(C)c2cccnc2)cc1 (stereo unspecified) | 569 s
16 | COc1ccc(CN2CC[C@@H]3CN(S(C)(=O)=O)[C@@H]3C2)c(OC)c1 | 580 s
17 | COC[C@@H]1CN(S(=O)(=O)c2ccccc2F)C[C@H]1c1ccncc1 | 745 s
18 | CCC(=O)n1nc(C)c(S(=O)(=O)N2CCC(C)CC2)c1C | 1150 s

Row | SMILES | RP-LC retention time
19 | COC(=O)c1cc2c(=O)n(-c3ccc(NC(C)=O)cc3)ccc2nc1C | 675 s
20 | COc1ccc(-c2cn3cccnc3n2)cc1NC(=O)c1cc(Br)ccc1Cl | 768 s
21 | CCCN1C(=O)COc2ccc(-c3noc(CNS(=O)(=O)c4ccc(F)cc4)n3)cc21 | 884 s
22 | CC(C)(C)C(=O)N1CCCC1c1nc2ccccc2s1 (stereo unspecified) | 932 s
23 | CC(C)c1ccc(S(=O)(=O)N2CCc3c(c(-c4nnc(-c5ccc(F)cc5)o4)nn3C)C2)cc1 | 1100 s
24 | CCOc1ccccc1NC(=O)Cc1csc2nc(-c3ccc(OC)c(OC)c3)cn12 | 793 s
25 | O=C(Cn1cnc2c(sc3nc(-c4ccccc4)ccc32)c1=O)Nc1ccc(Br)cc1 | 1120 s
26 | O=C(NCc1ccc(Cl)cc1)C1CC(=O)N(CCc2c[nH]c3ccc(F)cc23)C1 (stereo unspecified) | 802 s
27 | O=C(NC1CC1)[C@@H]1C[C@H](Oc2cccnc2)CN1C(=O)C1CC=CC1 | 567 s
28 | Cc1ccc(F)c(NS(=O)(=O)c2cc3c(s2)CCN(C(=O)C2CC2)C3)c1 | 848 s
29 | CCc1nc2ccc(-c3noc(-c4ccc(C#N)cc4)n3)cc2n1CC | 716 s
30 | CCCC(NC(=O)Cc1ccccc1F)C(=O)Nc1nc2ccccc2[nH]1 (stereo unspecified) | 694 s
31 | CC(C)(NC(=O)c1cnccn1)c1nc2c(c(C(N)=O)n1)OCO2 | 598 s
32 | Cc1nn(C(C)C(=O)NCCN2CCCCCC2)c(=O)c2c(-n3cccc3)n(-c3ccccc3)nc12 (stereo unspecified) | 736 s
33 | COCCN1C(=O)CCc2cc(NS(=O)(=O)c3ccc(F)c(C)c3)ccc21 | 800 s
34 | Cc1nc(CC(=O)Nc2nc(-c3ccc(Br)cc3)cs2)cs1 | 996 s
35 | CC(C)c1ccc(NC(=O)Cn2cnc3nc4c(cc3c2=O)CCCC4)cc1 | 762 s
36 | CCCCN(C)C(=O)Cn1c(CN(C)C(=O)c2ccco2)nc2ccccc21 | 655 s
